Assay results: patent US9359378B2, “Substituted oxazolo[3,4-a]pyrazines as pharmaceutcals” (BIOLAB SANUS FARMACÊUTICA LTDA., priority 2014, dated 2016)

Molecular target: T1, PDE10A2 (Homo sapiens, UniProt Q9Y233)
T1 construct: host or cells: Sf9
Test: PDE10A2 enzyme inhibition (HTRF, cAMP substrate)
Assay type: biochemical
Conditions: human recombinant enzyme (Sf9); FIG. 14; test concentration not given
Excerpt: The effects of the BL-230 and BL-236 compounds on the activity of the human enzymes PDE2A1, PDE3A, PDE4A1A, PDE4B1, PDE7A, PDE8A1, and PDE10A2 and PDE11A4 were quantified by measuring the production of adenosine 5′-monophosphate (5′AMP) from cyclic adenosine monophosphate (cAMP), with human recombinant enzyme expressed in Sf9 cells and the detection method was by using HTRF®.
The test compound, the reference compound or water (control) were mixed with the enzyme (the enzymes and their amounts used are described in Table 1) in a buffer containing 44.4 mM Tris-HCl, 5.28 mM MgCl2, 2.64 mM DTT and 0.044% Tween® 20 (pH 7.8). Then, the reaction was initiated by the addition of 40 nM of cAMP substrate and the mixture was incubated for 30 minutes at room temperature. For basal control measurements, the enzyme was omitted from the reaction mixture. The fluorescence acceptor (Dye2 labeled cAMP) and fluorescence donor (anti-cAMP antibody labeled with europium cryptate) were added in the presence of 1 mM IBMX. After 60 minutes, the fluorescence corresponding to the amount of transfer residual cAMP was measured at λex=337 nm, λem=620 nm and λem=665 nm using a microplate reader (RubyStar, BMG). The enzyme activity was determined by the signal division measured at 665 nm, by the measured signal at 620 nm (right). The results were expressed as a inhibition percentage of the control enzyme activity. […]

T1 sequence (Q9Y233 267-1055): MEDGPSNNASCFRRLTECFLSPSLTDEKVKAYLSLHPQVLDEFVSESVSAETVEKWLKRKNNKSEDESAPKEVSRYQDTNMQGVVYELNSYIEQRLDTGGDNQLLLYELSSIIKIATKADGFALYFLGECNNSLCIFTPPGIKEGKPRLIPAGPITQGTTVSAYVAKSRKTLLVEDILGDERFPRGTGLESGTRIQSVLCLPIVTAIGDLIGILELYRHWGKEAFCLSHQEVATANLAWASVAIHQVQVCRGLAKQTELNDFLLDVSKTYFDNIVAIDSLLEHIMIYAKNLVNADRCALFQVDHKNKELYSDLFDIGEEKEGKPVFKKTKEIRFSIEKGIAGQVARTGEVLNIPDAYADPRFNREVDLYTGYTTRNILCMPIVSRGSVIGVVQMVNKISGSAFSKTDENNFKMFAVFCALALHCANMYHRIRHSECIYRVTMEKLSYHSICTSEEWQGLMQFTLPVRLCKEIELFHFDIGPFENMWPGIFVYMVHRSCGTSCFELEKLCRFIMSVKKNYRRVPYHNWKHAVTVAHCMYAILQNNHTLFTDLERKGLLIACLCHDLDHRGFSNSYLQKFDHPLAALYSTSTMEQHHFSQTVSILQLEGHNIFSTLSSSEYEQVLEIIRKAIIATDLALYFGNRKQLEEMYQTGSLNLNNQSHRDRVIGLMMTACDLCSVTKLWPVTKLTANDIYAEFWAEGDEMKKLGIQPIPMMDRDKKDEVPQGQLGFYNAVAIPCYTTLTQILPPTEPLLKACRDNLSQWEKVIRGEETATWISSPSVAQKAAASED

O=C1C2=C(c3c[nH]c4ccccc34)OC(c3ccc4c(c3)OCO4)N2C(=O)CN1CCO (stereo not shown) [BL-230, 3-(benzo[d][1,3]dioxol-5yl)-7-(2-hydroxyethyl)-1-(1H-indol-3-yl)-6,7-dihydro-3H-oxazolo[3,4-a]pyrazine-5,8-dione]
inhibition of PDE10A2 enzyme activity: 35%
